ChEMBL document CHEMBL1145609, “Design and synthesis of tacrine-ferulic acid hybrids as multi-potent anti-Alzheimer drug candidates” (Bioorg Med Chem Lett, 2008)

Experiments:
Butyrylcholinesterase = Butyrylcholinesterase (Equus caballus, UniProt Q9N1N9)
Description: Inhibition of equine BChE by Ellman's assay

Acetylcholinesterase = Acetylcholinesterase (Electrophorus electricus, UniProt O42275)
Sequence of Acetylcholinesterase (O42275 whole entry): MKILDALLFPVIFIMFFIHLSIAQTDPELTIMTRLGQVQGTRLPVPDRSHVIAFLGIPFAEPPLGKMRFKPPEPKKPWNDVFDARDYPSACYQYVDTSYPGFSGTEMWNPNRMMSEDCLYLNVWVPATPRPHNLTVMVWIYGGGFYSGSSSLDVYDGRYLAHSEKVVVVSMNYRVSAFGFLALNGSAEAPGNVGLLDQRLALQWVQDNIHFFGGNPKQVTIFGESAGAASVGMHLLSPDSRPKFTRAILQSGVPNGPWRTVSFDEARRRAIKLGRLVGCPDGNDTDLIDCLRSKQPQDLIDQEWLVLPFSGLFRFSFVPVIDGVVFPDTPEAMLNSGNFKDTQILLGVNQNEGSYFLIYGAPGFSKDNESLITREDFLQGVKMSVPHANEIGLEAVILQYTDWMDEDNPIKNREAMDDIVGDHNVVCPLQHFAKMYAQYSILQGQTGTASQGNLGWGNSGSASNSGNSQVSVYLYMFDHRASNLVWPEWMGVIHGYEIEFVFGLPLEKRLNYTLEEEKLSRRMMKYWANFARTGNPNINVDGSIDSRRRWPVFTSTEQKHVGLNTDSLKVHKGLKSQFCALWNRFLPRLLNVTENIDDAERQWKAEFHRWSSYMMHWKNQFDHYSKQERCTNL
Description: Inhibition of electric eel AchE by Ellman's assay

Sequence of Butyrylcholinesterase (Q9N1N9 whole entry): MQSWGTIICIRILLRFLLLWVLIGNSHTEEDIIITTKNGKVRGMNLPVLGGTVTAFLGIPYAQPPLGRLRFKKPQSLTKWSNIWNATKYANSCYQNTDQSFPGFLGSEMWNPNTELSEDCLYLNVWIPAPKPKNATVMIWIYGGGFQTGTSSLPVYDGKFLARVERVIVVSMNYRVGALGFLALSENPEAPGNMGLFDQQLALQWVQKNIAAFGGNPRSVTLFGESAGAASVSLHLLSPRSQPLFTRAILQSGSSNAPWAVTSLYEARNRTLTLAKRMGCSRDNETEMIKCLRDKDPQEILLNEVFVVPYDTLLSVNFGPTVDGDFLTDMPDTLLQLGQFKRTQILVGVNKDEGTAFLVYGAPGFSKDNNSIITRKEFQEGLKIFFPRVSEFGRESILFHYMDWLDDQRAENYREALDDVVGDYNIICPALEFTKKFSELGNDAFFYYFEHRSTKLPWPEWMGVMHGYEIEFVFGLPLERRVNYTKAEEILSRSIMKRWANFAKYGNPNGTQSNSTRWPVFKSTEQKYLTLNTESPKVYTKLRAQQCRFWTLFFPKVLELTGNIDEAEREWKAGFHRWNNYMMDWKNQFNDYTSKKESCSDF

## NCCCCCNc1c2c(nc3ccccc13)CCCC2
Butyrylcholinesterase
  IC50: 5 nM
Acetylcholinesterase
  IC50: 3.2 nM

## COc1cc(/C=C/C(=O)NCCCCCNc2c3c(nc4ccccc24)CCCC3)ccc1O
Butyrylcholinesterase
  IC50: 6.7 nM
Acetylcholinesterase
  IC50: 4.4 nM

## COc1cc(/C=C/C(=O)NCCNc2c3c(nc4ccccc24)CCCC3)ccc1O
Butyrylcholinesterase
  IC50: 34.1 nM
Acetylcholinesterase
  IC50: 38.6 nM

## NCCCCCCCCNc1c2c(nc3ccccc13)CCCC2
Butyrylcholinesterase
  IC50: 1.4 nM
Acetylcholinesterase
  IC50: 3.5 nM

## NCCNc1c2c(nc3ccccc13)CCCC2
Butyrylcholinesterase
  IC50: 12.3 nM
Acetylcholinesterase
  IC50: 54.8 nM

## NCCCNc1c2c(nc3ccccc13)CCCC2
Butyrylcholinesterase
  IC50: 5.5 nM
Acetylcholinesterase
  IC50: 69.5 nM

## NCCCCNc1c2c(nc3ccccc13)CCCC2
Butyrylcholinesterase
  IC50: 7.1 nM
Acetylcholinesterase
  IC50: 23.6 nM

## COc1cc(/C=C/C(=O)NCCCNc2c3c(nc4ccccc24)CCCC3)ccc1O
Butyrylcholinesterase
  IC50: 27 nM
Acetylcholinesterase
  IC50: 33 nM

## COc1cc(/C=C/C(=O)NCCCCNc2c3c(nc4ccccc24)CCCC3)ccc1O
Butyrylcholinesterase
  IC50: 5.9 nM
Acetylcholinesterase
  IC50: 7.6 nM

## COc1cc(/C=C/C(=O)NCCCCCCCCNc2c3c(nc4ccccc24)CCCC3)ccc1O
Butyrylcholinesterase
  IC50: 12.7 nM
Acetylcholinesterase
  IC50: 9.6 nM
